Test results published in US20090197922A1, “COMPOSITIONS AND METHODS FOR TREATING PULMONARY HYPERTENSION” (The University of Chicago, priority 2006, published 2009).
“Also recorded” adds a separate entry of the source.

Tests used:
[1] = tested on: hypoxia-induced model of pulmonary hypertension in Dahl SS rats; experiment: Hemodynamic study (pressures, RV/LV weights) in hypoxia/SU5416 model of pulmonary hypertension; format: in vivo, rat; details: for BP mmHg (+/−) SE / PA mmHg (+/−) SE / RVSP mmHg (+/−) SE: 3½ Wk hypoxia (10% FiO2), sorafenib daily 2.5 mg/Kg, SU5416 day zero 20 mg/kg, 2 experiments as one cohort; for development of pulmonary hypertension (right ventricular and pulmonary artery pressures, right ventricle/left ventricular weights): hypoxia 10% FiO2, 3 weeks, SU5416 20 mg/kg once, sorafenib by gavage daily
Description: As part of the spectrum of sorafenib's pharmacologic activity overlaps with SU5416, a study was performed to determine whether sorafenib had similar effects or with additional mechanisms of inhibitory activity could counteract the effects of SU5416. Dahl Salt Sensitive rats were divided into 5 groups: normoxia+vehicle (normal, healthy control), hypoxia+SU5416 (positive control), hypoxia+sorafenib (safety comparison with SU5416), and hypoxia+sorafenib+SU5416 (therapeutic activity assessment). Echocardiograms were performed on all rats at the start of the study. Except for the normoxia group, all rats were maintained in a hypoxia chamber with a partial pressure of oxygen of 10% FiO2 for the duration of the study. Rats in the two SU5416 groups received one subcutaneous injection of SU5416 at the start of the study (20 mg/kg). Stock sorafenib solutions were prepared every three days, crushing and dissolving sorafenib tablets in EL/ethanol (50:50; Sigma Cremophor EL, 95% ethyl alcohol) at final concentration of 4 mg/mL, protected from light exposure and stored at room temperature. Final dosing solutions were prepared on the day of use by dilution of the stock solution to 1 mg/mL with water and administered by gavage to the rats daily. […] Organ and blood specimens were obtained for further evaluation. […] RV 3DE measurements were also determined (diameters+area), A=RV major diameter, B=RV annulus diastolic diameter & area, C=RV at ⅓ RV major diameter & area, D=RV at ⅔ RV major diameter & area.
(§1) Protocol includes an initial administration of SU5416 subcutaneously at 20 mg/kg followed daily by sorenfenib oral daily doses of 2.5 mg/kg. Some animals were exposed to chronic hypoxia (10% O2). The animals were divided into five experimental groups: hypoxia+sorafenib; hypoxia+SU5416+sorafenib, normoxia+vehicle control; Hypoxia+vehicle; and hypoxia+SU5416. PAP, RVSP, Echo, and DNA microarrays were used to measure various physiological and molecular biological parameters. FIG. 4 illustrates that hypoxia/SU5416-induces increases in right heart pressures and right heart hypertrophy (RV/LV+Septum).
Fifteen Dahl Salt Sensitive strain rats were divided into 5 groups: normoxia+vehicle (normal, healthy control), hypoxia+vehicle (hypoxia control), hypoxia+SU5416 (positive control), hypoxia+sorafenib (safety comparison with SU5416), and hypoxia+sorafenib+SU5416 (therapeutic activity assessment). Echocardiograms were performed on all rats at the start of the experiment. Except for the normoxia group, all rats were maintained in a hypoxia chamber with a partial pressure of oxygen of 10% FiO2 for the duration of the experiment. Rats in the 2 SU5416 groups received one subcutaneous injection of SU5416 at the start of the experiment (20 mg/kg). Stock sorafenib solutions were prepared every three days, crushing and dissolving sorafenib tablets in EL/ethanol (50:50; Sigma Cremophor EL, 95% ethyl alcohol) at final concentration of 4 mg/mL, protected from light exposure and stored at room temperature. Final dosing solutions were prepared on the day of use by dilution of the stock solution to 1 mg/mL with water and administered by gavage to the rats daily. […] Organ and blood specimens were obtained for further evaluation.

[2] = Body weight of rats in hypoxia/SU5416 study; format: in vivo, rat; details: Dahl SS rats
Description: (§2) Fifteen Dahl Salt Sensitive strain rats were divided into 5 groups: normoxia+vehicle (normal, healthy control), hypoxia+vehicle (hypoxia control), hypoxia+SU5416 (positive control), hypoxia+sorafenib (safety comparison with SU5416), and hypoxia+sorafenib+SU5416 (therapeutic activity assessment). Echocardiograms were performed on all rats at the start of the experiment. Except for the normoxia group, all rats were maintained in a hypoxia chamber with a partial pressure of oxygen of 10% FiO2 for the duration of the experiment. Rats in the 2 SU5416 groups received one subcutaneous injection of SU5416 at the start of the experiment (20 mg/kg). Stock sorafenib solutions were prepared every three days, crushing and dissolving sorafenib tablets in EL/ethanol (50:50; Sigma Cremophor EL, 95% ethyl alcohol) at final concentration of 4 mg/mL, protected from light exposure and stored at room temperature. Final dosing solutions were prepared on the day of use by dilution of the stock solution to 1 mg/mL with water and administered by gavage to the rats daily. After 3 weeks, all rats had echocardiography and hemodynamic studies. Organ and blood specimens were obtained for further evaluation.

[3] = tested on: hypoxia-induced model of pulmonary hypertension in Dahl SS rats; experiment: Echocardiography in hypoxia/SU5416 model of pulmonary hypertension; format: in vivo, rat; design: CO (PA): unit not given beside the values; RVAW / LVPW / CO (Ao) / MPA: unit not given here; details: echocardiogram
Description: As part of the spectrum of sorafenib's pharmacologic activity overlaps with SU5416, a study was performed to determine whether sorafenib had similar effects or with additional mechanisms of inhibitory activity could counteract the effects of SU5416. […] Echocardiograms were performed on all rats at the start of the study. Except for the normoxia group, all rats were maintained in a hypoxia chamber with a partial pressure of oxygen of 10% FiO2 for the duration of the study. Rats in the two SU5416 groups received one subcutaneous injection of SU5416 at the start of the study (20 mg/kg). Stock sorafenib solutions were prepared every three days, crushing and dissolving sorafenib tablets in EL/ethanol (50:50; Sigma Cremophor EL, 95% ethyl alcohol) at final concentration of 4 mg/mL, protected from light exposure and stored at room temperature. Final dosing solutions were prepared on the day of use by dilution of the stock solution to 1 mg/mL with water and administered by gavage to the rats daily. After 3 weeks, all rats had echocardiography and hemodynamic studies. Organ and blood specimens were obtained for further evaluation. […] RV 3DE measurements were also determined (diameters+area), A=RV major diameter, B=RV annulus diastolic diameter & area, C=RV at ⅓ RV major diameter & area, D=RV at ⅔ RV major diameter & area.
as §2, with “Echocardiograms” for “Fifteen Dahl Salt Sensitive strain rats were divided into 5 groups: normoxia+vehicle (normal, healthy control), hypoxia+vehicle (hypoxia control), hypoxia+SU5416 (positive control), hypoxia+sorafenib (safety comparison with SU5416), and hypoxia+sorafenib+SU5416 (therapeutic activity assessment). Echocardiograms”

[4] = tested on: hypoxia-induced model of pulmonary hypertension in Dahl SS rats; details: previously demonstrated; cited from earlier work
rat lung vasculature = experiment: Rat lung histopathology (H&E sections, Heath-Edwards grading); format: in vivo; details: Dahl SS rats, Hypoxia+SU5416+Sorafenib vs Hypoxia+SU5416, H/E sections
Description: The Heath-Edwards grading system grades pulmonary hypertension by microscopic features. The general classification is as follows:
as §1

rat lung tissue = experiment: Expression profiling of rat lung tissue RNA (Rat Chip II, Affymetrix); format: in vivo; details: compared to normoxia; GCRMA normalization, SAM (δ>0.639, minimum fold change>1.7)
Text: To study potential mechanisms of sorafenib effects on PH RNA was isolated from rat lung tissue and analyzed using the Rat Chip II (Affymetrix). […] Mechanisms of PAH pathobiology is poorly understood therefore, to explore potential mechanistic pathways the inventors conducted bioinformatic studies and expression profiling. […] The candidate genes identified fell into various gene ontology classes, for example 4% were in the lung development and growth factors class (e.g., Bambi, Tgfb3, Ltbp2), 13% in the cell migration/ECM class (e.g., Itga3_predicted, Cspg4, Cxcll2, Reln, Col18a1, Cthrc1, Hmgcr, Cnn1, Col6a2, Jag2), 4% in the apoptosis class (e.g., Anzal, Col18a1, Jag2), 4% in the smooth muscle/fiber formation class (e.g., Des, Tpm3, Jph2), 10% in the cell proliferation class (e.g., Anxal, Timp1, Lamb—1 predicted, Cspg4, Cxcll2, Gja4, Jag2, Tgfb3), 6% in the blood vessel development class (e.g., Cxcll2, Cspg4, Gja4, Col18a1, Serpine1), and 5% in the angiogenesis class (Cxcl12, Cspg4, Col18a1, Serpine1).

[5] = cited from earlier work
[6] = room temperature and neutral pH; cited from earlier work
[7] = Wade et al., 2004; cited from earlier work
PAH patients = details: case report, combination therapy with imatinib at 3 and 6 months; cited from earlier work
[8] = PRE (baseline at start of experiment)

Compound	BP mmHg (+/−) SE [1]	PA mmHg (+/−) SE [1]	RVSP mmHg (+/−) SE [1]	development of pulmonary hypertension (right ventricular and pulmonary artery pressures, right ventricle/left ventricular weights) [1]	Wt ([2]; POST (after 3 weeks hypoxia)) [g]	Wt [2, 8] [g]	CI (Ao) ([3]; POST (after 3 weeks hypoxia))	CI(PA) ([3]; POST (after 3 weeks hypoxia))	CO (Ao) ([3]; POST (after 3 weeks hypoxia))	CO (PA) ([3]; POST (after 3 weeks hypoxia))	FS (%) ([3]; POST (after 3 weeks hypoxia))	LV Mass (gram) ([3]; POST (after 3 weeks hypoxia))	LVPW ([3]; POST (after 3 weeks hypoxia))	MPA ([3]; POST (after 3 weeks hypoxia))	PA PG (mmHg) ([3]; POST (after 3 weeks hypoxia))	TV max PG (mmHg) ([3]; POST (after 3 weeks hypoxia))	CI (Ao) [3, 8]	CI(PA) [3, 8]	CO (Ao) [3, 8]	CO (PA) [3, 8]	also measured
Cc1cc(C)c(/C=C2\C(=O)Nc3ccccc32)[nH]1 [SU5416]	78 +/− 4 mmHg	33 +/− 3 mmHg	30 +/− 4 mmHg	developed pulmonary hypertension	324 ± 22	328 ± 11	0.82 ± 0.22	0.87 ± 0.14	261 ± 55	279 ± 69	63 ± 4	1.25 ± 0.33	0.16 ± 0.02	0.41 ± 0.05	2.05 ± 0.92	5.63 ± 4.07	0.95 ± 0.06	1.21 ± 0.26	310 ± 10	400 ± 99	RVAW ([3]; POST (after 3 weeks hypoxia)): 0.16 ± 0.03; FS (%) [3, 8]: 71 ± 11%; LV Mass (gram) [3, 8]: 1.30 ± 0.14 gram; LVPW [3, 8]: 0.16 ± 0.04; MPA [3, 8]: 0.45 ± 0.01; PA PG (mmHg) [3, 8]: 3.65 ± 2.76 mmHg; RVAW [3, 8]: 0.07; effect on pulmonary hypertension in hypoxic rats (previous reports) [4]: exacerbate pulmonary hypertension
CNC(=O)c1cc(Oc2ccc(NC(=O)Nc3ccc(Cl)c(C(F)(F)F)c3)cc2)ccn1 [Sorafenib]	97 +/− 4 mmHg	18 +/− 2 mmHg	17 +/− 2 mmHg	attenuated physiologic and histopathologic changes in PAH; also recorded: protect SU5416-treated hypoxia-exposed rats from pulmonary arterial hypertension	331 ± 15	328 ± 10	1.00 ± 0.80	0.82 ± 0.17	326 ± 246	271 ± 48	68 ± 20	1.30 ± 0.10	0.18 ± 0.03	0.38 ± 0.07	3.87 ± 0.95	4.85 ± 3.46	1.77 ± 1.30	1.70 ± 1.43	577 ± 418	551 ± 467	development of pulmonary hypertension (right ventricular and pulmonary artery pressures, right ventricle/left ventricular weights) ([1]; listed as sorafenib): prevents hypoxia+SU5416 induced pulmonary hypertension and remodeling; also recorded: no significant change in pressures or weights; also recorded: does not exacerbate hypoxia-induced hypertension; development of pulmonary hypertension (right ventricular and pulmonary artery pressures, right ventricle/left ventricular weights) ([1]; listed as sorefenib): did not develop evidence of PAH; right heart hypertrophy (RV/LV+Septum) ([1]; hypoxia+SU5416, sorafenib oral daily 2.5 mg/kg): prevented hypoxia+SU5416 development of right heart hypertrophy; remodeling of the lung vasculature (histopathology, Heath-Edwards grading) (rat lung vasculature): Prevents Remodeling; remodeling of the lung vasculature (histopathology, Heath-Edwards grading) (rat lung vasculature; listed as sorafenib): dramatic improvement; genes differentially regulated (rat lung tissue): at least 179 genes; FS (%) [3, 8]: 78 ± 5%; LV Mass (gram) [3, 8]: 1.60 ± 0.30 gram; LVPW [3, 8]: 0.21 ± 0.03; MPA [3, 8]: 0.48 ± 0.07; PA PG (mmHg) [3, 8]: 6.10 ± 5.52 mmHg; RVAW [3, 8]: 0.11; MTD ([5]; known MTD, oral): 400 mg twice daily; drug interactions with warfarin or digoxin ([5]; previous sorafenib studies): have not demonstrated known drug interactions
CCCCC[C@H](O)CC[C@@H]1[C@H]2Cc3cccc(OCC(=O)O)c3C[C@H]2C[C@H]1O [Treprostinil]																					chemical stability [6]: chemically stable at room temperature and neutral pH; half-life [7]: 3 to 4 h
Cc1ccc(NC(=O)c2ccc(CN3CCN(C)CC3)cc2)cc1Nc1nccc(-c2cccnc2)n1 [imatinib]																					improvement in 6MW (PAH patients): 60%
